# Reference: article PMC6150246, “Design, Synthesis and Preliminary Biological Evaluation of Novel Benzyl Sulfoxide 2-Indolinone Derivatives as Anticancer Agents” (Molecules : A Journal of Synthetic Chemistry and Natural …, 2017)
# How the values were obtained:
# [1] = system: human lung carcinoma A549; test: MTS cytotoxicity assay, A549; type: cell-based
# Description: (§1) To investigate the relationship between anticancer activity and tyrosine kinase inhibitory activity, these compounds were further evaluated for in vitro cytotoxicity against five cancer cell lines (human cervical carcinoma cell line HeLa, human breast carcinoma cell line MCF-7, human liver carcinoma cell line HepG2, human tongue carcinoma cell line SCC-15, and human lung carcinoma A549) using MTS assay. Indo 5 was also used as a reference compound.
# (§2) The five types of human cancer cell lines (HeLa, HepG2, MCF-7, SCC-15, and A549) were cultured aseptically using Dulbecco’s modified Eagle’s medium (DMEM) supplemented with 10% (v/v) fetal bovine serum (FBS) and penicillin (100 units mL^−1)/streptomycin ([…]), at pH 7.2 and 5% CO2 humidified atmosphere at 37 °C. After attaining 80% confluence, the cells were trypsinized with 0.25 trypsin–EDTA and diluted with media to a fixed number of cells.
# (§3) Cytotoxic activity was assessed using the standard MTS method by using triplicate assay. The cells were seeded into 96-well plates containing the medium at the density of 4000–6000 cells/mL (100 μL/well). The compounds were dissolved in DMSO to the concentration of 100 mM and diluted in a culture medium to the concentrations needed. After 24 h, the cultured cells were treated with concentrations of synthesized compounds (3.125 μM to 100 μM for tumor cells) for 48 h. After 48 h of incubation, the supernatant was replaced by fresh medium (100 μL/well) and 10 μL MTS reagent ([3-(4,5-dimethylthiazol-2-yl)-5-(3-carboxymethoxyphenyl)-2-(4-sulfophenyl)-2H-tetrazolium, inner salt]) was added to each well. The plate was further incubated for 3 h at 37 °C in 5% CO2. The optical absorbance in individual wells was determined at 492 nm using a microplate reader. The inhibition rates were calculated by the following formula: Inhibition rate (%) = (ODnegative control − ODsample)/(ODnegative control − ODblank) × 100%
# (§4) IC50 was calculated using GraphPad Prism Software (GraphPad Prism 5, La Jolla, CA, USA). For each concentration, at least three wells were performed to calculate the average parameter.
# [2] = target: tyrosine kinase; test: Tyrosine kinase inhibitory activity assay (self-made ELISA kit); type: biochemical; settings: for IC50: tyrosine kinase tissue extract, 37 °C 30 min; for tyrosine kinase inhibitory activity, in words: Indo 5 as reference
# Experimental: The 16 designed compounds were first evaluated for tyrosine kinase inhibitory activity using ELISA assay. Indo 5 was used as a reference compound. The kit was self-made and is a very effective and economical method for preliminary tyrosine kinase inhibitory activity evaluation.
# The tyrosine kinase inhibitory activity assay was performed as described in the literature. Details of the experimental procedures are presented in Supplementary Materials associated with this article. The IC50 was calculated using GraphPad Prism Software (GraphPad Prism 5, La Jolla, CA, USA). For each concentration, at least three wells were performed to calculate the average parameter.
# 100μL to each well. The plate was covered with its lid, and incubated at 4℃ overnight (10-12 hours). Then it was washed with 200μL elution buffer once, and dried at 37℃ for 2 h. After that, it was washed with 10mM PBS once, dried at room temperature, and then stored at 4℃ […]
# 2.1.5. Groups: Blank control: 60μL 1×tyrosine kinase buffer + 50μL 1×tyrosine kinase buffer containing ATP; Negative control: 10μL 1×tyrosine kinase buffer + 50μL 1×tyrosine kinase buffer containing tissue extract + 50μL 1×tyrosine kinase buffer containing ATP; Positive control: 10μL 1×tyrosine kinase buffer containing L029 + 50μL 1×tyrosine kinase buffer containing tissue extract + 50μL 1×tyrosine kinase buffer containing ATP; Vehicle control: 10μL 1×tyrosine kinase buffer containing DMSO + 50μL 1×tyrosine kinase buffer containing tissue extract + 50μL 1×tyrosine kinase buffer containing ATP; Compounds to be screened: 10μL 1×tyrosine kinase buffer containing compounds to be tested + 50μL 1× tyrosine kinase buffer containing tissue extract + 50μL 1×tyrosine kinase buffer containing ATP. (First, L029 and the compounds were allowed to interact with the tyrosine kinase tissue extract at room temperature for 10 min in advance, and did the same to the Blank control and the Vehicle control, then 50μL 1×tyrosine kinase buffer containing ATP was added to […]
# 2.1.6. Tyrosine kinase inhibitory activity assay: 1×tyrosine kinase buffer was prepared by evenly mixing 1 mL 10× tyrosine kinase buffer with 9 mL DDW. The tissue extract was diluted with 1×tyrosine kinase buffer appropriately, mixed with it gently and evenly, and placed on ice. ATP stock solution was mixed with 1×tyrosine kinase buffer at the final concentration of 3mM , and placed on ice. The microplate was added in respective wells with the groups formulated as above, covered with the lid, and incubated at 37℃ for 30 min. The microplate was washed with 200μL elution buffer and tapped until the residual buffer was removed, and this procedure was repeated for five times. To each well, 100μL antibody diluent (antibody elution buffer diluted at a ratio of 1:2000) was added. The microplate was covered with the lid, and incubated at room temperature for 30 min. OPD solution was prepared by addition of 4 mg OPD into a mixture of 4.86 mL 0.1 mol/L citric acid solution and 5.14 mL 0.2 mol/L Na2HPO4 solution, followed by addition of 50μL 30% H202 to allow for complete dissolution, and then was protected from light. The antibody solution was […]
# removed. The microplate was washed with 200μL elution buffer and tapped until the residual buffer was removed, and this procedure was repeated for five times. 100μL freshly prepared OPD was added, and reacted at room temperature light tight for precisely 7 min. Negative […]
# 100μL 2.5 N H2SO4 was added to terminate the reaction. OD
# 2.1.7. Sample screening: Samples were screened preliminarily by using triplicate assay. The effect of the samples on tyrosine kinase inhibitory activity was tested, and the inhibition rate was calculated. Inhibition rate (%)=(ODnegative control – ODsample) / (ODnegative control* – ODblank) × 100%; *While calculating inhibition rate of positive drugs, ODnegative control in the equation was replaced with ODvehicle control to exclude the influence of DMSO on tyrosine kinase activity. […]
# 2. S. Praveen Kumar, Jiri Gut, Rita C. […]
# [3] = system: human cervical carcinoma cell line HeLa; test: MTS cytotoxicity assay, HeLa; type: cell-based; settings: for IC50: 48 h treatment; for activity against the HeLa cell line, in words: Indo 5 as reference
# Description: as §1, §2, §3, §4
# [4] = system: human breast carcinoma cell line MCF-7; test: MTS cytotoxicity assay, MCF-7; type: cell-based
# Description: as §1, §2, §3, §4
# [5] = system: human liver carcinoma cell line HepG2; test: MTS cytotoxicity assay, HepG2; type: cell-based
# Description: as §1, §2, §3, §4
# [6] = system: human tongue carcinoma cell line SCC-15; test: MTS cytotoxicity assay, SCC-15; type: cell-based
# Description: as §1, §2, §3, §4
# [7] = Homo sapiens, A549, 48 h treatment
# [8] = Homo sapiens, MCF7, 48 h treatment
# [9] = Homo sapiens, HepG2, 48 h treatment
# [10] = Homo sapiens, SCC-15, 48 h treatment
IC50 [2],melting point,"tyrosine kinase inhibitory activity, in words [2]",SMILES,"IC50 [1, 7]","IC50 ([3]; Homo sapiens, HeLa)","IC50 [4, 8]","IC50 [5, 9]","IC50 [6, 10]","activity against the MCF-7 cell line, in words [4]",IC50 ([1]; 48 h treatment),IC50 [3],IC50 ([4]; 48 h treatment),IC50 ([5]; 48 h treatment),IC50 ([6]; 48 h treatment),"activity against the HeLa cell line, in words [3]","activity against the HepG2 cell line, in words [5]"
5.09 ± 0.12 µM,202 to 203 °C,–,"O=C1Nc2ccccc2/C1=C/[S+]([O-])Cc1ccccc1Cl (stereo not drawn) [Compound 6e, (Z)-3-(((2-Chlorobenzyl)sulfinyl)methylene)indolin-2-one]",> 100 µM,70.9 ± 1.17 µM,> 100 µM,96.83 ± 0.95 µM,> 100 µM,–,–,–,–,–,–,–,–
4.39 ± 0.23 µM,186 to 188 °C,–,"Cc1ccc(C[S+]([O-])/C=C2\C(=O)Nc3ccccc32)cc1 (stereo not drawn) [Compound 6n, (Z)-3-(((4-Methylbenzyl)sulfinyl)methylene)indolin-2-one]",59.6 ± 0.97 µM,27.8 ± 0.78 µM,55.1 ± 1.51 µM,59 ± 0.97 µM,90.5 ± 2.32 µM,–,–,–,–,–,–,–,–
3.52 ± 0.15 µM,198 to 199 °C,–,"O=C1Nc2ccccc2/C1=C/[S+]([O-])Cc1ccccc1Br (stereo not drawn) [Compound 6h, (Z)-3-(((2-Bromobenzyl)sulfinyl)methylene)indolin-2-one]",> 100 µM,79.9 ± 1.57 µM,> 100 µM,98.3 ± 2.04 µM,> 100 µM,–,–,–,–,–,–,–,–
9.32 ± 0.66 µM,186 to 187 °C,–,"O=C1Nc2ccccc2/C1=C/[S+]([O-])Cc1cccc(F)c1 (stereo not drawn) [Compound 6c, (Z)-3-(((3-Fluorobenzyl)sulfinyl)methylene)indolin-2-one]",> 100 µM,24.4 ± 0.54 µM,31.5 ± 0.82 µM,42 ± 0.7 µM,49.9 ± 0.93 µM,good antitumor activity,–,–,–,–,–,–,–
3.85 ± 0.09 µM,174 to 175 °C,–,"Cc1cccc(C[S+]([O-])/C=C2\C(=O)Nc3ccccc32)c1 (stereo not drawn) [Compound 6m, (Z)-3-(((3-Methylbenzyl)sulfinyl)methylene)indolin-2-one]",79.32 ± 0.79 µM,27 ± 1.2 µM,41.4 ± 2.2 µM,36 ± 2.13 µM,50.3 ± 1.51 µM,–,–,–,–,–,–,–,–
11.6 ± 0.79 µM,–,–,"Cc1ccccc1NS(=O)(=O)c1ccc2c(c1)/C(=C/c1nc3ccccc3[nH]1)C(=O)N2 [Indo 5, reference compound]",–,–,–,–,–,–,29.16 ± 0.29 µM,19.6 ± 0.46 µM,24.2 ± 0.49 µM,22.2 ± 0.41 µM,28.2 ± 1.08 µM,–,–
5.96 ± 0.14 µM,192 to 194 °C,–,"O=C1Nc2ccccc2/C1=C/[S+]([O-])Cc1cccc(Cl)c1 (stereo not drawn) [Compound 6f, (Z)-3-(((3-Chlorobenzyl)sulfinyl)methylene)indolin-2-one]",> 100 µM,60.3 ± 1.98 µM,93 ± 1.5 µM,86.5 ± 1.15 µM,96.8 ± 3.76 µM,–,–,–,–,–,–,–,–
16.02 ± 0.05 µM,198 to 199 °C,weak tyrosine inhibitory activity,"Cc1ccccc1C[S+]([O-])/C=C1\C(=O)Nc2ccccc21 (stereo not drawn) [Compound 6l, (Z)-3-(((2-Methylbenzyl)sulfinyl)methylene)indolin-2-one]",> 100 µM,> 100 µM,81.6 ± 2.62 µM,> 100 µM,> 100 µM,–,–,–,–,–,–,–,–
7.93 ± 0.2 µM,208 to 209 °C,weak tyrosine inhibitory activity,"O=C1Nc2ccc(Br)cc2/C1=C/[S+]([O-])Cc1ccccc1F (stereo not drawn) [Compound 6p, (Z)-5-Bromo-3-(((2-fluorobenzyl)sulfinyl)methylene)indolin-2-one]",> 100 µM,19.8 ± 0.25 µM,76.4 ± 1.5 µM,> 100 µM,> 100 µM,–,–,–,–,–,–,–,–
3.74 ± 0.19 µM,183 to 184 °C,–,"O=C1Nc2ccccc2/C1=C/[S+]([O-])Cc1ccccc1F (stereo not drawn) [Compound 6b, (Z)-3-(((2-Fluorobenzyl)sulfinyl)methylene)indolin-2-one]",> 100 µM,14 ± 0.27 µM,49.1 ± 1.08 µM,47.8 ± 1.47 µM,> 100 µM,–,–,–,–,–,–,stronger activity than Indo 5,–
3.32 ± 0.19 µM,193 to 194 °C,–,"O=C1Nc2ccccc2/C1=C/[S+]([O-])Cc1cccc(Br)c1 (stereo not drawn) [Compound 6i, (Z)-3-(((3-Bromobenzyl)sulfinyl)methylene)indolin-2-one]",64.9 ± 1.57 µM,48.42 ± 0.14 µM,75.1 ± 1.93 µM,71.8 ± 2.18 µM,82.1 ± 3.34 µM,–,–,–,–,–,–,–,–
2.23 ± 0.14 µM,181 to 182 °C,–,"COc1cccc(C[S+]([O-])/C=C2\C(=O)Nc3ccccc32)c1 (stereo not drawn) [Compound 6k, (Z)-3-(((3-Methoxybenzyl)sulfinyl)methylene)indolin-2-one]",62.3 ± 2 µM,22.7 ± 0.64 µM,59.1 ± 37 µM,49.4 ± 1.33 µM,86.7 ± 5.16 µM,–,–,–,–,–,–,–,–
3.16 ± 0.31 µM,191 to 192 °C,–,"O=C1Nc2ccccc2/C1=C/[S+]([O-])Cc1ccccc1 (stereo not drawn) [Compound 6a, (Z)-3-((Benzylsulfinyl)methylene)indolin-2-one]",> 100 µM,11.2 ± 0.42 µM,35.2 ± 1.16 µM,52.1 ± 0.94 µM,58.9 ± 0.75 µM,good antitumor activity,–,–,–,–,–,stronger activity than Indo 5,–
9.3 ± 0.47 µM,193 to 194 °C,–,"O=C1Nc2ccccc2/C1=C/[S+]([O-])Cc1ccc(F)cc1 (stereo not drawn) [Compound 6d, (Z)-3-(((4-Fluorobenzyl)sulfinyl)methylene)indolin-2-one]",90.3 ± 2.14 µM,25 ± 0.68 µM,49.12 ± 0.29 µM,36.2 ± 0.53 µM,65 ± 1.47 µM,–,–,–,–,–,–,–,considerable cytotoxic activity
3.3 ± 0.03 µM,193 to 195 °C,–,"O=C1Nc2ccccc2/C1=C/[S+]([O-])Cc1ccc(Cl)cc1 (stereo not drawn) [Compound 6g, (Z)-3-(((4-Chlorobenzyl)sulfinyl)methylene)indolin-2-one]",> 100 µM,40.9 ± 0.88 µM,92.6 ± 0.97 µM,75.35 ± 0.72 µM,> 100 µM,–,–,–,–,–,–,–,–
